We go through 12 molecules from PubChem BioAssay (NCI).

Some test systems named below: NCI-H23 lung; SW-620 colon; SF-295 CNS; HOP-92 NSCLC; SN12C renal; T-47D breast; BT-549 breast; MDA-MB-435; MDA-N.
Common to all, as to assay: NCI anticancer screen, dose series, 48 h

Structures are written as SMILES.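 A five-concentration, 48-hour dose response in 96-well plates underlies each endpoint, interpolated linearly between surrounding concentrations. Here, GI50 denotes the concentration required for 50% inhibition of growth. TGI: total growth inhibition.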 Where a SMILES comes first, the peptide text is derived from it. The star is where a group is joined. Boc = CC(C)(C)OC(=O)* Some results are limits rather than exact numbers.

Regarding `CC(C)(C)OC(=O)NCC(=O)NCC(=O)NCC(=O)NCC(=O)O` (Boc-GGGG-OH), the TGI with NCI-H23 lung, in the assay on SW-620 colon, in the assay with SF-295 CNS, in the assay with HOP-92 NSCLC, with SN12C renal and in the assay on T-47D breast was greater than 100 µM in each case. Further, the TGI with BT-549 breast and in the assay on MDA-MB-435 was greater than 100 µM throughout.

As for `Brc1cccc(Nc2nc(-c3cccs3)nc3ccc(Br)cc23)c1`, the TGI with NCI-H23 lung is greater than 100 µM; in the assay with SW-620 colon, greater than 100 µM; in the assay with SF-295 CNS, 45.1 µM; in the assay with HOP-92 NSCLC it was greater than 100 µM; with SN12C renal it was 71.3 µM; in the assay with T-47D breast it was greater than 100 µM. Moreover, the TGI was greater than 100 µM in the assay with BT-549 breast and 37.2 µM with MDA-MB-435.

With `COc1cc(NS(C)(=O)=O)ccc1N1Cc2cnc3ccc4[nH]c(C)cc1c4c23`, the TGI in the assay on NCI-H23 lung was greater than 100 µM; in the assay on MDA-N, 47.7 µM; in the assay with SW-620 colon, greater than 100 µM; with SF-295 CNS it was greater than 100 µM; in the assay on HOP-92 NSCLC, greater than 100 µM; in the assay with BT-549 breast it was greater than 100 µM. In the assay with MDA-MB-435, the TGI was 50.1 µM.

As to `O=C1CN2C(c3ccccc3)=NN(c3ccc([N+](=O)[O-])cc3)C2(c2ccccc2)c2cc(Cl)ccc2N1CC1CC1` (centres undefined), the TGI in the assay on NCI-H23 lung, in the assay with SW-620 colon, in the assay on SF-295 CNS, with HOP-92 NSCLC, in the assay with SN12C renal and with BT-549 breast was greater than 100 µM each time. This molecule registered a TGI with MDA-MB-435 greater than 100 µM.

In the case of `COc1cc2c(cc1-c1c(C)noc1C)cc(C)c(=O)n2Cc1ccccn1`, the GI50 is 3.4 µM in the assay with NCI-H23 lung; 2.59 µM in the assay with SW-620 colon; 2.3 µM in the assay with SF-295 CNS; 0.473 µM in the assay on HOP-92 NSCLC; 2.91 µM with SN12C renal; 0.456 µM with T-47D breast. The results for the GI50 in the assay on BT-549 breast and in the assay with MDA-MB-435 were 3.89 µM and 1.25 µM, respectively. In addition, the TGI was greater than 100 µM in the assay on NCI-H23 lung; greater than 100 µM in the assay on SW-620 colon; greater than 100 µM with SF-295 CNS; 25.3 µM in the assay on HOP-92 NSCLC; greater than 100 µM in the assay with SN12C renal; greater than 100 µM with T-47D breast. For the same molecule, the values for the TGI in the assay on BT-549 breast and in the assay on MDA-MB-435 were greater than 100 µM and 4.33 µM, respectively.

On to `COc1ccc2cc(-c3ccc(-c4ccc(C(=N)N)s4)s3)ccc2c1`, for which the GI50 in the assay on NCI-H23 lung was 3.22 µM; with SW-620 colon, 1.91 µM; in the assay on SF-295 CNS, 5.07 µM; in the assay with SN12C renal, 2.12 µM; in the assay on T-47D breast, 1.79 µM; with BT-549 breast, 17.6 µM. For the same molecule, in the assay on MDA-MB-435, the GI50 is 2.01 µM. For the same molecule, the TGI in the assay on NCI-H23 lung was determined as 9.89 µM; in the assay on SW-620 colon, 3.81 µM; in the assay with SF-295 CNS, 17.6 µM; with SN12C renal, 4.65 µM; in the assay with T-47D breast, 4.01 µM; in the assay on BT-549 breast, 38.5 µM. In the assay with MDA-MB-435, this molecule had a TGI of 4.48 µM.

Turning to `CC12CC(=O)C3C(C(=O)C1)C32C` (centres undefined), the TGI in the assay on NCI-H23 lung, with MDA-N, in the assay on SW-620 colon, in the assay with SF-295 CNS, in the assay with SN12C renal and in the assay with BT-549 breast was greater than 100 µM in each case. Moreover, in the assay on MDA-MB-435, the TGI was greater than 100 µM.

On to `O=C(NCCN1CCOCC1)c1ccc2cc(C(=O)N3CC(CCl)c4ccc([N+](=O)[O-])cc43)[nH]c2c1` (centres undefined), for which the TGI with NCI-H23 lung was greater than 100 µM; with SW-620 colon, greater than 100 µM; in the assay on SF-295 CNS it was 13.3 µM; in the assay on HOP-92 NSCLC, 38.4 µM; with SN12C renal it was 52.7 µM; in the assay with T-47D breast, greater than 100 µM. Also, the TGI in the assay with BT-549 breast was 92.3 µM; in the assay with MDA-MB-435, 49.2 µM.

As to `O=c1oc(-c2ccc(O)c(O)c2)cc2cccc(O)c12`, the TGI was 53.6 µM in the assay with NCI-H23 lung; 78.2 µM in the assay on SW-620 colon; 80.2 µM in the assay with SF-295 CNS; 43.4 µM in the assay on HOP-92 NSCLC; 46.1 µM in the assay with SN12C renal; 9.46 µM in the assay on T-47D breast. The TGI in the assay on BT-549 breast turned out to be 49 µM; in the assay with MDA-MB-435, 60.3 µM.

For `N#C/C(=C\c1cc(Br)c(O)c(Br)c1)c1cccnc1`, the TGI in the assay on NCI-H23 lung is 52.8 µM; in the assay with MDA-N, greater than 100 µM; in the assay with SW-620 colon, greater than 100 µM; with SF-295 CNS, 46.7 µM; with SN12C renal it was greater than 100 µM; in the assay on BT-549 breast it was 56.9 µM.

`COc1cc([N+](=O)[O-])c(OC)cc1-c1nc2sc(Cl)cn2c1/C=N/Nc1ccccn1`: the GI50 with SW-620 colon is greater than 50 µM; with SF-295 CNS, 12.4 µM; in the assay with SN12C renal, 8.53 µM; with T-47D breast, 20.6 µM; in the assay on BT-549 breast it was 15.5 µM; in the assay on MDA-MB-435 it was greater than 50 µM. In addition, the TGI with SW-620 colon was greater than 50 µM; in the assay with SF-295 CNS, 41.8 µM; in the assay with SN12C renal it was 36.8 µM; in the assay with T-47D breast it was greater than 50 µM; in the assay on BT-549 breast, 38.7 µM; in the assay with MDA-MB-435, greater than 50 µM.

Consider `CN(C)C(=S)S`, for which the TGI in the assay with NCI-H23 lung is greater than 93.3 µM; in the assay with SW-620 colon it was greater than 100 µM; in the assay on SF-295 CNS, greater than 100 µM; with HOP-92 NSCLC, greater than 100 µM; in the assay with SN12C renal, greater than 100 µM; in the assay on T-47D breast, greater than 100 µM. Moreover, the TGI in the assay with BT-549 breast and with MDA-MB-435 was greater than 100 µM in each case.
